Data set [1] concerns HCMV strain AD169. The experiment in a line: HCMV plaque reduction assay in MRC-5 cells. It counts as cell-based. Particulars: peptide 10 micrograms per ml, 7-10 days. The source says:
Ganciclovir was used as positive control.
In general terms: In a plaque reduction assay, fewer plaques than in the control indicate reduced infectivity or spread.

Data set [2] deals with MRC-5 cells (human embryonal lung fibroblasts). Nature of the data set: Cytotoxicity testing in MRC-5 cells (CellTiter 96). It counts as cell-based. The following applies: 6 days. The procedure: For cytotoxicity testing, MRC-5 cells were seeded at 2,500 cells/well in 96 well plates using growth medium. […] The following day, peptide was added and tested in duplicates. After a 6 days incubation period, cell viability was measured using CellTiter 96 Solution (Promega). Plates were incubated for additional 4 hours at 37° C.

Data set [3] deals with HIV-1IIIB. Nature of the data set: HIV-1 antiviral assay (CPE reduction) in CEM-SS cells. Particulars: peptide 10 micrograms per ml; 6 days post-infection; MTS.
Data set [4] relates to CEM-SS cells. Nature of the data set: Cytotoxicity (MTS cell viability) in HIV-1 assay. The following applies: peptide 10 micrograms per ml, MTS.

On to `Nc1nc(O)c2ncn(COC(CO)CO)c2n1` [Ganciclovir, reference compound], for which the “% plaque reduction” value in data set [1] came out at 100%. Besides, the “% Cell viability” value in data set [2] is reported as 100%. With `CC(C)(C)NC(=O)[C@@H]1CN(Cc2cccnc2)CCN1C[C@@H](O)C[C@@H](Cc1ccccc1)C(=O)N[C@H]1c2ccccc2C[C@H]1O` [Indinavir], the “% CPE reduction in HIV-1 infected CEM-SS cells” value in data set [3] came to 100%. On to `Cc1cn([C@H]2C[C@H](N=[N+]=[N-])[C@@H](CO)O2)c(=O)[nH]c1=O` [AZT, reference compound], for which the “% Cell viability” value in data set [4] worked out at 97%. Also, the “% CPE reduction in HIV-1 infected CEM-SS cells” value in data set [3] turned out to be 99%.

For the origin of these results see patent publication US20100204149A1, “USE OF OCTREOTIDE AS A THERAPEUTIC AGENT” (priority 2007, published 2010).
